Data on 1 molecule can be found in patent US20100273895A1, “FORMULATIONS OF CANNABIDIOL AND PRODRUGS OF CANNABIDIOL AND METHODS OF USING THE SAME” (AllTranz Inc., priority 2009, published 2010).

The data set is described as follows: CBD accelerated stability study at 40° C. In kind it is physicochemical. The protocol:
In order to assess the stability of cannabidiol formulations, the pH rate profiles over a range of probable pHs were studied. The rate profile with the lowest Kdeg would be desirable in order to ensure a two-year shelf life for a cannabidiol gel. The pH ranges studied were 4.0, 5.0, 5.5, 6.0, 6.5 and 7.0 prepared with either an acetate (0.01M: pH 4.0, 5.0 and 5.5) or phosphate (0.01 M: pH 6.0, 6.5 and 7.0) buffer system and maintained at an ionic strength of 0.154 M with NaCl at 40° C. CBD was prepared at 1 mg/mL and analyzed initially at a theoretical 10 μg/ml concentration. The results of these studies appear in FIGS. 13 and 14.
Additional stability studies were conducted with CBD synthesized by alternate routes. […] Over sixty-five days, the purity of CBD is still greater than 99%.

[1] abbreviates: sixty-five day accelerated stability study at 40° C.

Molecules are shown by their SMILES. Where only a bound is given, the exact number is not on record here.

Consider `C=C(C)[C@@H]1CCC(C)=C[C@H]1c1c(O)cc(CCCCC)cc1O` [CBD, cannabidiol], for which the “28.9 min peak as share of the total area compared to the CBD peak” value (65 days in a 40° C. chamber) is listed as “approximately 0.74%”. Further, under “over sixty-five days”, the “purity of CBD” value is recorded as “greater than 99%”. Besides, under setting [1], the degradation result is recorded as “no significant degradation” and the purity remaining was over 98%.
